The results in this text go back to patent US6414154B1, “Tetraisoquinoline derivatives as modulators of dopamine D3 receptors” (SmithKline Beecham p.l.c., priority 1998, dated 2002).

T1 sequence (P35462 whole entry): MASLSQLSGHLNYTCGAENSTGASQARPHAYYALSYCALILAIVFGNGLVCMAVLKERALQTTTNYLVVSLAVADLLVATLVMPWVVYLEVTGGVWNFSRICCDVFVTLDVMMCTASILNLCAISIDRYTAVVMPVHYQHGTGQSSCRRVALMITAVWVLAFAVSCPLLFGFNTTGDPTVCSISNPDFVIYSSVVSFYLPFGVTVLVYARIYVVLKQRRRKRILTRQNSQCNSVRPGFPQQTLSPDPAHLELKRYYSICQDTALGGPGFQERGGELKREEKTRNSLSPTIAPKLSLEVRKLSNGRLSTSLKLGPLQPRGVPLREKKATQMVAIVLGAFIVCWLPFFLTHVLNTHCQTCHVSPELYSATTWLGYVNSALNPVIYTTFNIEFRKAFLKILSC

The test concerns the target T1, human D3 dopamine receptors (Homo sapiens, UniProt P35462).
T1 construct: expressed in transfected cells; host or cells: CHO cells (crude cell membranes)
Kind of test: displacement of [125I] iodosulpride binding to cloned human D3 dopamine receptors expressed in CHO cells. To be noted: 0.1 nM [125I] iodosulpride, CHO cell membranes, 30 min at 37° C.; read-out: pKi at the D3 receptor (converted). As to the method:
The inhibition constants (Ki) of test compounds for displacement of [^125I] iodosulpride binding to human D3 dopamine receptors expressed in CHO cells were determined as follows. […] Cultures were grown as monolayers or in suspension in standard cell culture media. Cells were recovered by scraping (from monolayers) or by centrifugation (from suspension cultures), and were washed two or three times by suspension in phosphate buffered saline followed by collection by centrifugation. Cell pellets were stored frozen at −40° C. Crude cell membranes were prepared by homogenisation followed by high-speed centrifugation, and characterisation of cloned receptors achieved by radioligand binding.
Cell pellets were gently thawed at room temperature, and resuspended in about 20 volumes of ice-cold 50 mM Tris salts (pH 7.4@37° C.), 20 mM EDTA, 0.2 M sucrose. The suspension was homogenised using an Ultra-Turrax at full speed for 15 sec. The homogenate was centrifuged at 18,000 r.p.m for 20 min at 4° C. in a Sorvall RC5C centrifuge. The membrane pellet was resuspended in ice-cold 50 mM Tris salts (pH 7.4@37° C.), using an Ultra-Turrax, and recentrifuged at 18,000 r.p.m for 15 min at 4° C. in a Sorvall RC5C. The membranes were washed two more times with ice-cold 50 mM Tris salts (pH 7.4@37° C.). The final pellet was resuspended in 50 mM Tris salts (pH 7.4@37° C.), and the protein content determined using bovine serum albumin as a standard (Bradford, M. M. (1976) Anal. Biochem. 72, 248-254).
Crude cell membranes were incubated with 0.1 nM [^125I] iodosulpride (˜2000 Ci/mmol; Amersham, U. K.), and the test compound in a buffer containing 50 mM Tris salts (pH 7.4@37° C.), 120 mM NaCl, 5 mM KCl, 2 mM CaCl2, 1 mM MgCl2, 0.1% (w/v) bovine serum albumin, in a total volume of 1 ml for 30 min at 37° C. Following incubation, samples were filtered using a Brandel Cell Harvester, and washed three times with ice-cold 50 mM Tris salts (pH 7.4@37° C.), 120 mM NaCl, 5 mM KCl, 2 mM CaCl2, 1 mM MgCl2. The radioactivity on the filters was measured using a Cobra gamma counter (Canberra Packard). Non-specific binding was defined as the radioligand binding remaining after incubation in the presence of 100 μM iodosulpride. For competition curves, 14 concentrations (half-log dilutions) of competing cold drug were used. Competition curves were analysed simultaneously whenever possible using non-linear least-squares fitting procedures, capable of fitting one, two or three site models.
For orientation: In a radioligand displacement assay an active substance lowers the binding of a labelled ligand.
`N#Cc1ccc2c(c1)CCN(CC[C@H]1CC[C@H](NC(=O)Cc3csc4ccccc34)CC1)C2` [Example 22, trans-6-Cyano-2-(2-(1-(4-(3-benzo[b]thienyl)acetarnido)cyclohexyl)-ethyl)-1,2,3,4-tetrahydroisoquinoline]: the Ki was 3.16 to 12.6 nM.
For `N#Cc1ccc2c(c1)CCN(CC[C@H]1CC[C@H](NC(=O)Cc3ccc(-c4ccccc4)cc3)CC1)C2` [Example 9, trans-6-Cyano-2-(^2-(1-(4-(4-phenyl)phenylacetamido)cyclohexyl)-ethyl)-1,2,3,4-tetrahydroisoquinoline], the Ki is 3.16 to 12.6 nM.
In the case of `N#Cc1ccc2c(c1)CCN(CC[C@H]1CC[C@H](NC(=O)Cc3ccc(F)cc3F)CC1)C2` [Example 19, trans-6-Cyano-2-(2-(1-(4-(2,4-difluoro)phenylacetamido)cyclohexyl)-ethyl)-1,2,3,4-tetrahydroisoquinoline], the Ki was 3.16 to 12.6 nM.
